Measured values as given in patent publication US11248020B2, “Oligonucleotide compositions and methods for treating diseases” (priority 2017, dated 2022).

Assays:
Alzheimer's Disease = experiment: Alzheimer's disease patients scored by MMSE and ADAScog; assay type: in vivo, human; settings: average values per group
Procedure: In the first control group, the patients received conventional therapy, i.e., a reversible, noncompetitive glutamate receptors antagonist Memantine (10 mg per day). In the second control group the patients received placebo. Test group #4, and Test group #5 received compositions #4 and 5, respectively, in the form of extended release sublingual tablets (also comprising 12% hypromellose; 10% lactose monohydrate; 60% carbopol; 8% Polycarbophil; 10% starch-based gel) used 2 time a day. The patients were scored according to MMSE (Mini-Mental State Examination) and ADAScog (assessment of cognitive impairment) scales. 12 groups of 4 people were formed.

colon cancer = experiment: Azoxymethane colon cancer model in rats after total colectomy: recurrences, metastases, survival; assay type: in vivo, male albino Wistar rats
Procedure: The studies were performed in male albino Wistar rats (Rappolovo breeding nursery), aged 14 weeks, weighing 180-190 g. Prior to the study period, animals (n=600) were kept in identical conditions, and received the same diet. For modeling colon cancer, the animals received Azoxymethane (Sigma) in the amount of 10 mg/kg (in 0.9% NaCl) for 12 weeks. In 26 weeks, the abdomen of anesthetized animals was opened, and the presence and size of colon tumors and metastases was visually assessed. Animals bearing neoplasms of more than 3 mm in diameter and having no observed metastases (360 animals) were subjected to total colectomy. In 2 days after surgery, mono- and/or oligonucleotide mixtures were administered either parenterally (via IV) or enterally (with drinking water). Each group consisted of 20 animals. In 8 weeks, surviving animals were sacrificed (animals were randomized into groups with 10 surviving animals per group), and the recurrence rates and presence of metastases was evaluated.
Enteral Administration The first control group received no treatment. Test group #1, Test group #2, Test group #3, Test group #4, Test group #5, and Test group #6 received mixtures of mono- and/or oligonucleotides (from 1 to 100,000 mcg/kg/day) prepared with the use of different nucleases, as specified in Table 2, below:
The first control group received no treatment. The second control group received conventional therapy consisting of 5-fluorouracil (5 mg/kg/day). Test group #1, Test group #2, Test group #3, Test group #4, and Test group #5 were administered (from 1 to 100,000 mcg/kg/day for 30 days).

[1] = enteral administration (with drinking water), evaluated in 8 weeks
[2] = parenteral administration (via IV), 30 days

Structure (SMILES) | Patients score ADAScog (Alzheimer's Disease; in 30 days) | Patients score MMSE (Alzheimer's Disease; in 30 days) | Patients score ADAScog (Alzheimer's Disease; in 90 days) | Patients score MMSE (Alzheimer's Disease; in 90 days) | Patients score ADAScog (Alzheimer's Disease; pre-treatment) | Patients score MMSE (Alzheimer's Disease; pre-treatment) | No. of animals in the group with recurrences or metastases (colon cancer; [1]) | No. of animals with metastasis (colon cancer; [1]) | No. of surviving animals/Total No. per group (colon cancer; enteral administration (with drinking water), in 8 weeks) | No. of animals in the group with recurrences or metastases (colon cancer; [2]) | No. of animals with metastasis (colon cancer; [2]) | No. of surviving animals/Total No. of animals per group (colon cancer; [2])
CC12CC3CC(C)(C1)CC(N)(C3)C2 [1st control group, Memantine] | 37 | 15 | 37 | 16 | 41 | 13 |  |  |  |  |  | 
O=c1[nH]cc(F)c(=O)[nH]1 [2nd control, 5-fluorouracil] |  |  |  |  |  |  | 4 | 7 | 13/20 | 4 | 6 | 14/20
